From publication PMC2849849 (Neuropharmacology, 2010)
“And” between values parts separate entries of the source, which are not always exact repeats. Equal entries are not always repeated. “Also recorded” adds a separate entry of the source. Structures can show the parent of a compound that is named as a salt. Where two headings read alike, the source gives them in different places.

Experiments:
α7-nAChR = α7-nAChR (Mus musculus, UniProt P49582); experiment: biochemical; format: binding
α4β2*-nAChR [1] = target: T1, α4β2*-nAChR (Mus musculus, UniProt O70174+Q9ERK7); experiment: α-CtxMII-resistant [3H]-dopamine release from striatal synaptosomes; format: biochemical
α6β2*-nAChR [2] = target: T2, α6β2*-nAChR (Mus musculus, UniProt Q9ERK7+Q9R0W9); experiment: α-CtxMII-sensitive [3H]-dopamine release from striatal synaptosomes; format: biochemical
hα7-nAChR = hα7-nAChR (Homo sapiens, UniProt P36544); experiment: cell-based; format: cell-based; details: for Emax: GH4-C1, read-out: Efficacy α7; for EC50: read-out: EC50 α7
α3β4*-nAChR = α3β4*-nAChR (Mus musculus, UniProt Q8R493+Q8R4G9); experiment: [3H]-ACh release from IPN synaptosomes; format: biochemical; details: for Functional character at α3β4*: [3H]-ACh release from IPN synaptosomes
α4L9'A knock-in mice [3] = experiment: Hypothermia in α4L9'A knock-in mice; format: in vivo, mouse; details: for Physiological effect α4L9'Aβ2*: ip
α4β2*-nAChR [4] = target: T1, α4β2*-nAChR; details: ref Salminen et al, 2004; cited from earlier work
α6β2*-nAChR [5] = target: T2, α6β2*-nAChR; details: ref Salminen et al, 2004; cited from earlier work
α6L9'S mice = details: 0.1 mg/kg; unpublished data
α6L9'S transgenic mice [6] = details: ref Drenan et al, 2008, cited from earlier work; for Physiological effect α6L9'Sβ2*: locomotor, ip, dose in parentheses mg/kg
α4L9'A knock-in mice [7] = details: ref Tapper et al, 2007, cited from earlier work; for Physiological effect α4L9'Aβ2*: ip, dose in parentheses mg/kg
α6L9'S transgenic mice [8] = experiment: Locomotor activity in α6L9'S transgenic mice; format: in vivo, mouse; details: for Physiological effect α6L9'Sβ2*: locomotor, ip, dose in parentheses mg/kg
[9] = Ki α4β2* (1st number, [3H]DA release assay, marked #)
[10] = EC50 α3β4*, activation, [3H]ACh release
[11] = read-out: Ki α4β2* (1st number, [3H]DA release assay, marked #)
[12] = EC50 α4β2* (1st number, [3H]DA release assay), activation, curve fit
[13] = EC50 α6β2*, activation, α-CtxMII-sensitive DA release
[14] = dose in parentheses mg/kg, block = block of low dose nicotine

Sequence of hα7-nAChR (P36544 23-502): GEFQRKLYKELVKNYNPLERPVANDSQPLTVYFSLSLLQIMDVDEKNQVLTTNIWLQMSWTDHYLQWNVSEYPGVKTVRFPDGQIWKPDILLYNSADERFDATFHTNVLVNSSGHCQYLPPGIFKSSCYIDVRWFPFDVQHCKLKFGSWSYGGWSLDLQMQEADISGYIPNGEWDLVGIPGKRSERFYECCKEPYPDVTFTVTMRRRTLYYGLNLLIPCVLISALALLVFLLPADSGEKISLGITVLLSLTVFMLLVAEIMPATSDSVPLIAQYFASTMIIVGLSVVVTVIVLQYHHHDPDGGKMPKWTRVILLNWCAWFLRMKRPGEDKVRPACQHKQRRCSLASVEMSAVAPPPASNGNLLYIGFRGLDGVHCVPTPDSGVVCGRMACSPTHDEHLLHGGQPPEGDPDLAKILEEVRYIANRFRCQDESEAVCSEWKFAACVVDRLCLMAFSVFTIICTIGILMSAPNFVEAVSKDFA
Sequence of α3β4*-nAChR (Q8R4G9 26-499): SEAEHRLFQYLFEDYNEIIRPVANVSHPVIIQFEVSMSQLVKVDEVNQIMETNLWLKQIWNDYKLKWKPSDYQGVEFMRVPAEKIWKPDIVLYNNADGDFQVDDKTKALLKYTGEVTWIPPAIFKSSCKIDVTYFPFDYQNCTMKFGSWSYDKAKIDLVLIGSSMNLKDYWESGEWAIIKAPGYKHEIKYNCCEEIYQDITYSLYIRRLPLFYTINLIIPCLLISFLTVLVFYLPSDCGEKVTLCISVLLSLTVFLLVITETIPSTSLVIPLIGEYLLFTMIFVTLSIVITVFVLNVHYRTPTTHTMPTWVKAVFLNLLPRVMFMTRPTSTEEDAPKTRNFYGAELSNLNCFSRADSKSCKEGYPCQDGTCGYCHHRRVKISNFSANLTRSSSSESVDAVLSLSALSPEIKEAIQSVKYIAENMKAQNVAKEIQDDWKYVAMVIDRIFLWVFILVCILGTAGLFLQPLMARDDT
Sequence of α3β4*-nAChR (Q8R493 21-495): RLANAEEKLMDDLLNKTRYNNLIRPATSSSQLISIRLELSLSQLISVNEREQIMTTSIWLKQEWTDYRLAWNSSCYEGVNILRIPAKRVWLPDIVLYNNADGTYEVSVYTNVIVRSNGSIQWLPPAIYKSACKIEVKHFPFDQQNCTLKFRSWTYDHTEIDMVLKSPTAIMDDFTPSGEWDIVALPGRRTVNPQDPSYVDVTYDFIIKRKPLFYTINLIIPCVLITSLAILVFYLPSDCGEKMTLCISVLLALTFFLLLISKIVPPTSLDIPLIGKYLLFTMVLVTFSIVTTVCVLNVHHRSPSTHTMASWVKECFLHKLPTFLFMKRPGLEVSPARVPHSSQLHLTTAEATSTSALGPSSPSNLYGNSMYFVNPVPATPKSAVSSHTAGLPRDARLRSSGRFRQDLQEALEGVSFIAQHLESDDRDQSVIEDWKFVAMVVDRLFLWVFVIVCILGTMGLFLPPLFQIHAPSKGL
T2 sequence (Q9R0W9 31-494): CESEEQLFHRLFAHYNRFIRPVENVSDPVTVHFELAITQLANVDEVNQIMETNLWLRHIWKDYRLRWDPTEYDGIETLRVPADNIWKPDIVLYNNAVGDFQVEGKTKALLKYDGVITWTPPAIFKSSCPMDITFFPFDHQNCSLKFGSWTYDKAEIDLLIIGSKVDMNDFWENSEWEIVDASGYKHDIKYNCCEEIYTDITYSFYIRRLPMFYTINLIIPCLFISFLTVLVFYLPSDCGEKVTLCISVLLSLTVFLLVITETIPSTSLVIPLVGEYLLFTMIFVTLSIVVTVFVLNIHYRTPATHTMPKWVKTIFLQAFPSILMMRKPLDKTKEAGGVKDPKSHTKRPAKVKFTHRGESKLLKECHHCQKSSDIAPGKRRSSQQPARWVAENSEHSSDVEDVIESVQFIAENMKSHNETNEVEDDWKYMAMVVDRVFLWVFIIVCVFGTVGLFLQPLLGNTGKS
T2 sequence (Q9ERK7 26-501): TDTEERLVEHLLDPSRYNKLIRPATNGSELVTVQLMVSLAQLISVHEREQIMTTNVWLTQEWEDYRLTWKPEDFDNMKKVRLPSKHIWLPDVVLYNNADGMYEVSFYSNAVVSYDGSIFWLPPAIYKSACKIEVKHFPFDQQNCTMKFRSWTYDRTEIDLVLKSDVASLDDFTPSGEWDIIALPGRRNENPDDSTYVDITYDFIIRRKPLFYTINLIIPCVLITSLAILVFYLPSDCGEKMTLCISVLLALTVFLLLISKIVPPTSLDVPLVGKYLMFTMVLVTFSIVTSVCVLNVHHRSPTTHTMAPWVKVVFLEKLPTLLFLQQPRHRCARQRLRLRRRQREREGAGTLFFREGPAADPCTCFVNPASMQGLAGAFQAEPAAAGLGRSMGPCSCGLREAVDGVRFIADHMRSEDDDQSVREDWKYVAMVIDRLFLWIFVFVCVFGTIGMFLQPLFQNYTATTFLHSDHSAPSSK
T2 sequence (Q8BMN3 31-464 partner): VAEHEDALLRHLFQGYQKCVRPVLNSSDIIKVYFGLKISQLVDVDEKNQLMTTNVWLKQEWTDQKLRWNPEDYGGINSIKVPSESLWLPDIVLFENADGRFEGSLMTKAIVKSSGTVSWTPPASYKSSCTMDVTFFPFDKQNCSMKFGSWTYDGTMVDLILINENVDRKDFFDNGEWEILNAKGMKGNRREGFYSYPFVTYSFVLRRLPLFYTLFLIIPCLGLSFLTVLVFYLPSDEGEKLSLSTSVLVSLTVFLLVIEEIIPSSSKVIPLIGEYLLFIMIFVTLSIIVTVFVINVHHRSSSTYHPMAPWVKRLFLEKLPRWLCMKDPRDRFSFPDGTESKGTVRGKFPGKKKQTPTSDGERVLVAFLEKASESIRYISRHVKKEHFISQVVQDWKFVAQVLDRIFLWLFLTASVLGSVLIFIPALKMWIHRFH
Sequence of α7-nAChR (P49582 23-502): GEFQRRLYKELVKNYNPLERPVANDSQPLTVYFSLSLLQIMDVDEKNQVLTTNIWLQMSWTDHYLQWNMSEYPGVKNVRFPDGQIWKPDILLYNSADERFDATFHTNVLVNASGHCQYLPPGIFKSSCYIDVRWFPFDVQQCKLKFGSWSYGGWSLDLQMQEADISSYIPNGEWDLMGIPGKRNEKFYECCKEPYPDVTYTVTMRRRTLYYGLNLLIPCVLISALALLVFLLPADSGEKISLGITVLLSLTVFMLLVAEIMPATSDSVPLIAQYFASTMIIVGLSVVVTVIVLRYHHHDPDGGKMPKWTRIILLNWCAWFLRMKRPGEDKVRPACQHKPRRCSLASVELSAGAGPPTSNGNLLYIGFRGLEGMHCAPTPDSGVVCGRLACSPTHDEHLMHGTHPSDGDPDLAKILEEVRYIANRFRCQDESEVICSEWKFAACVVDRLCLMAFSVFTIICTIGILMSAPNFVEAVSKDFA
T1 sequence (O70174 31-629): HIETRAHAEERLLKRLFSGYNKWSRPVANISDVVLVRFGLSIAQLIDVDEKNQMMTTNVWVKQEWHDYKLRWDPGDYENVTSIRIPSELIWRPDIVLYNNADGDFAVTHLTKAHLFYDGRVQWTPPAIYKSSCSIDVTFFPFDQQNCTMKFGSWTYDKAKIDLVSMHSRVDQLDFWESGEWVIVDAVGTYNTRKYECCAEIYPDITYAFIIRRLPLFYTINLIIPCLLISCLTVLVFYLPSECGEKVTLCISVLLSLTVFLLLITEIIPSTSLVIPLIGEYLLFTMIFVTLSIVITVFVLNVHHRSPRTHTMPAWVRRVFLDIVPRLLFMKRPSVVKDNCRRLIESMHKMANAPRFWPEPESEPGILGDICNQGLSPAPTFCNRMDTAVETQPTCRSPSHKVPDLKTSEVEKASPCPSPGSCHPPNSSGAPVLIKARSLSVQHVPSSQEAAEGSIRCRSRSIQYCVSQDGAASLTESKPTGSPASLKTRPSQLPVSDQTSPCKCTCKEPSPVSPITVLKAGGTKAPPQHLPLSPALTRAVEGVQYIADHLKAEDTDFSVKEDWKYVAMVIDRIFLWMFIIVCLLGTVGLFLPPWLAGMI
T1 sequence (Q9ERK7 26-501): as the sequence (Q9ERK7 26-501) above

CNC(C)C/C=C/c1cncc(C#Cc2ccccc2)c1 (centres unmarked) [Compound 9, (E)-N-methyl-5-(5-(phenylethynyl)pyridin-3-yl)pent-4-en-2-amine]
Ki (α7-nAChR): 30700 ± 4100 nM
Ki (α4β2*-nAChR [1]; [9]): 3900 nM
Inhibition at α6β2* (partial antagonism) (α6β2*-nAChR [2]): ~50%
Ki (α6β2*-nAChR [2]): 4100 ± 83 nM
Efficacy α7 (hα7-nAChR): naa
EC50 α7 (hα7-nAChR; peak current, GH4C1 cells): naa
Ki (α3β4*-nAChR): 14000 ± 300 nM
Functional character at α3β4* (α3β4*-nAChR): full antagonists
Physiological effect α4L9'Aβ2* (α4L9'A knock-in mice [3]; mouse, in vivo): did not have intrinsic activity, nor did they block the effect of nicotine; also recorded: no effect

O=c1cccc2n1C[C@@H]1CNC[C@H]2C1 [cytisine]
Efficacy at α4β2*-nAChRs (α4β2*-nAChR [4]): 37%
Efficacy at α6β2* (α6β2*-nAChR [5]): 71%

c1cncc(C2CCC3CCN2CC3)c1 (centres unmarked) [Compound 3, 2-(pyridine-3-yl)-1-azabicyclo[3.2.2]nonane]
Ki (α7-nAChR): 2.2 ± 0.5 nM
Ki (α4β2*-nAChR [1]; [9]): 14 nM
Ki (α6β2*-nAChR [2]): 52 ± 22 nM
Functional character at α7 (hα7-nAChR): full agonists
Emax (hα7-nAChR): 106%
EC50 (α3β4*-nAChR; [10]): 2200 ± 300 nM
Functional character at α3β4* (α3β4*-nAChR): full or nearly full agonists
Physiological effect α4L9'Aβ2* (α4L9'A knock-in mice [3]; mouse, in vivo): blocked the effects of 0.1 mg/kg nicotine; also recorded: block (0.002)

c1cncc(CC2CC3CCN2CC3)c1 (centres unmarked) [Compound 5, 2-(pyridin-3-ylmethyl)quinuclidine]
Functional character at α3β4* (α3β4*-nAChR): full or nearly full agonists
Physiological effect α4L9'Aβ2* (α4L9'A knock-in mice [3]; mouse, in vivo): did not have intrinsic activity, nor did they block the effect of nicotine; also recorded: no effect

CN1CCC[C@H]1c1cccnc1 [Nicotine, (-)-nicotine tartrate]
Temperature decrease in α6L9'S mice (α6L9'S mice): < 1 °C
Locomotor activation, % of saline activity in α6L9'S mice (α6L9'S transgenic mice [6]; 0.15 mg/kg ip): ~350%
Physiological effect α6L9'Sβ2* (α6L9'S transgenic mice [6]): activation (0.1) ^2
Physiological effect α6L9'Sβ2* (α6L9'S transgenic mice [6]; listed as nicotine): locomotor hyperactivity
Temperature decrease in α4L9'A mice (α4L9'A knock-in mice [7]; 0.03 mg/kg): 3 °C
Physiological effect α4L9'Aβ2* (α4L9'A knock-in mice [7]): hypothermia (0.01) ^1
Physiological effect α4L9'Aβ2* (α4L9'A knock-in mice [7]; listed as nicotine): hypothermia

N#Cc1ccc(Oc2cncc(C3CC4CCN3CC4)c2)cc1 (centres unmarked) [Compound 7, 4-(5-(quinuclidin-2-yl)pyridin-3-yloxy)benzonitrile]
Ki (α7-nAChR): 23.4 ± 7.9 nM
Ki (α4β2*-nAChR [1]; [9]): 66 nM
Antagonist potency at α6β2* relative to Compound 6 (times more potent) (α6β2*-nAChR [2]): 40 times
Ki (α6β2*-nAChR [2]): 48 ± 3 nM
Ki (α3β4*-nAChR): 7000 ± 2000 nM
Functional character at α3β4* (α3β4*-nAChR): full or nearly full agonists
Physiological effect α4L9'Aβ2* (α4L9'A knock-in mice [3]; mouse, in vivo): blocked the effects of 0.1 mg/kg nicotine; also recorded: block (0.01)
Physiological effect α6L9'Sβ2* (α6L9'S transgenic mice [8]): block (0.1)

c1cncc(C2C3CC4CC(C3)CN2C4)c1 (centres unmarked) [Compound 4, 1-aza-2-(3-pyridinyl)-tricyclo[3.3.1.13,7]decane]
Ki (α7-nAChR): 64.5 ± 5.5 nM
Ki (α4β2*-nAChR [1]; [9]): 78 nM
Ki (α6β2*-nAChR [2]): 570 ± 299 nM
EC50 (α3β4*-nAChR; EC50 α3β4* [3H]-ACh release): 8500 nM
EC50 (α3β4*-nAChR; [10]): 34000 ± 8000 nM
Functional character at α3β4* (α3β4*-nAChR): full or nearly full agonists
Physiological effect α4L9'Aβ2* (α4L9'A knock-in mice [3]; mouse, in vivo): blocked the effects of 0.1 mg/kg nicotine; also recorded: block (0.01)

c1cncc(C2CC3CCN2CC3)c1 (racemic) [Compound 1, (±)-2-(-3-pyridinyl)-1-azabicyclo[2.2.2]octane]
Temperature drop in α4L9'A mice (α4L9'A knock-in mice [3]; 0.03 mg/kg i.p.): ~8 °
Physiological effect α4L9'Aβ2* (α4L9'A knock-in mice [3]; mouse, in vivo): hypothermia (0.03)
Increase in activity over saline in α6L9'S mice (α6L9'S transgenic mice [8]; 0.01 mg/kg i.p.): ~290%
Physiological effect α6L9'Sβ2* (α6L9'S transgenic mice [6]): locomotor activation; also recorded: activation (0.01) ^2

2-((5-chloropyridin-3-yloxy)methyl)quinuclidine [Compound 11]
Efficacy α4β2* (first number, [3H]DA release) (α4β2*-nAChR [1]): -100 ± 9%
Reduction of antagonist potency at α4β2* relative to Compound 5 (α4β2*-nAChR [1]): 16 fold
Ki (α4β2*-nAChR [1]; [11]): 490 nM
Efficacy α6β2* (α6β2*-nAChR [2]): -100 ± 18%
Reduction of antagonist potency at α6β2* relative to Compound 5 (α6β2*-nAChR [2]): 2 fold
Ki (α6β2*-nAChR [2]; read-out: Ki α6β2* (marked #)): 910 ± 656 nM
Efficacy α7 (hα7-nAChR): 31% and 31 ± 12%
EC50 (hα7-nAChR; peak current, GH4C1 cells): 4260 ± 730 nM
Efficacy α3β4* (α3β4*-nAChR): 8% and 8 ± 2%
Functional character at α3β4* (α3β4*-nAChR): partial agonists
EC50 (α3β4*-nAChR; read-out: EC50 α3β4*, activation, [3H]ACh release): 7000 ± 1000 nM
Physiological effect α4L9'Aβ2* (α4L9'A knock-in mice [3]; mouse, in vivo): did not have intrinsic activity, nor did they block the effect of nicotine; also recorded: inconclusive

c1ccc(-c2cncc(C3CC4CCN3CC4)c2)cc1 [Compound 6, (4S)-2-(5-phenylpyridin-3-yl)quinuclidine]
Decrease in α7 binding affinity relative to Compound 1 (α7-nAChR): approximately 50 fold
Efficacy α4β2* (first number, [3H]DA release) (α4β2*-nAChR [1]): -94 ± 2%
Ki (α4β2*-nAChR [1]; [11]): 230 nM
Efficacy α6β2* (α6β2*-nAChR [2]): -100 ± 19%
Ki (α6β2*-nAChR [2]; read-out: Ki α6β2* (marked #)): 1780 ± 1740 nM
Efficacy α7 (hα7-nAChR): 18 ± 6%
EC50 (hα7-nAChR; peak current, GH4C1 cells): 29000 ± 5400 nM
Efficacy α3β4* (α3β4*-nAChR): -100 ± 7%
Functional character at α3β4* (α3β4*-nAChR): full antagonists
Ki (α3β4*-nAChR; read-out: Ki α3β4* (marked #)): 660 ± 170 nM

c1cncc(C2C3CCN2CC3)c1 (centres unmarked) [Compound 2, 7-(pyridin-3-yl)-1-azabicyclo[2.2.1]heptane]
Ki (α7-nAChR): 32.9 ± 1.3 nM
EC50 (α4β2*-nAChR [1]; [12]): 1040 ± 280 nM
EC50 (α6β2*-nAChR [2]; [13]): 50 ± 23 nM
Functional character at α6β2* (α6β2*-nAChR [2]; α-CtxMII-sensitive DA release): full agonist
Functional character at α7 (hα7-nAChR): full agonist
Emax (hα7-nAChR): 108%
EC50 (α3β4*-nAChR): 4200 ± 500 nM
Functional character at α3β4* (α3β4*-nAChR): full or nearly full agonists
Physiological effect α4L9'Aβ2* (α4L9'A knock-in mice [3]; [14]): elicited responses; also recorded: hypothermia (0.03)
Physiological effect α6L9'Sβ2* (α6L9'S transgenic mice [8]): elicited responses; also recorded: locomotor activation; also recorded: activation (0.1)

c1cnc2cc3c(cc2n1)[C@@H]1CNC[C@H]3C1 [Varenicline, reference compound]
Ki (α7-nAChR): 42 ± 5 nM
EC50 (α4β2*-nAChR [1]): 50 ± 12 nM
EC50 (α6β2*-nAChR [2]): 77 ± 169 nM
Emax (hα7-nAChR): 78 ± 24%
EC50 (α3β4*-nAChR): 12000 ± 300 nM
Physiological effect α4L9'Aβ2* (α4L9'A knock-in mice [3]; [14]): hypothermia (0.001)
Physiological effect α6L9'Sβ2* (α6L9'S transgenic mice [8]): activation (0.1)
Physiological effect α6L9'Sβ2* (α6L9'S transgenic mice [8]; listed as varenicline): locomotor hyperactivity

CN1[C@@H]2CC[C@H]1C=C(c1cncc(Br)c1)C2 [Compound 10, (1R,5S)-3-(5-bromopyridin-3-yl)-8-methyl-8-azabicyclo[3.2.1]oct-3-ene]
Ki (α7-nAChR): 128 ± 36 nM
Efficacy as % of Compound 8, α-CtxMII-resistant DA release (α4β2*-nAChR [1]): 25%
Increase in potency relative to Compound 8, α-CtxMII-resistant DA release (α4β2*-nAChR [1]): 83 fold
EC50 (α4β2*-nAChR [1]; [12]): 178 ± 94 nM
EC50 (α4β2*-nAChR [1]; EC50 α-CtxMII-resistant (α4β2*) [3H]-DA release): 180 nM
EC50 (α6β2*-nAChR [2]; [13]): 117 ± 69 nM
EC50 (α6β2*-nAChR [2]; EC50 α-CtxMII-sensitive (α6β2*) [3H]-DA release): 120 nM
Functional character at α6β2* (α6β2*-nAChR [2]; α-CtxMII-sensitive DA release): partial agonist
Emax (hα7-nAChR): 55 ± 9%
EC50 (α3β4*-nAChR; [10]): 7200 ± 600 nM
Functional character at α3β4* (α3β4*-nAChR): partial agonists
Physiological effect α4L9'Aβ2* (α4L9'A knock-in mice [3]; mouse, in vivo): elicited responses; also recorded: hypothermia (0.1)
Physiological effect α6L9'Sβ2* (α6L9'S transgenic mice [8]): elicited responses; also recorded: locomotor activation; also recorded: activation (0.1)

CNCC/C=C/c1cccnc1 [Compound 8, (E)-N-methyl-4-(3-pyridinyl)-3-butene-1-amine]
Ki (α7-nAChR): 3070 ± 800 nM
EC50 (α4β2*-nAChR [1]): 14800 ± 10100 nM
Functional character at α6β2* (α6β2*-nAChR [2]; α-CtxMII-sensitive DA release): no measurable activity
Emax (hα7-nAChR): 17 ± 7%
Functional character at α3β4* (α3β4*-nAChR): partial agonists
Physiological effect α4L9'Aβ2* (α4L9'A knock-in mice [3]; mouse, in vivo): elicited responses; also recorded: hypothermia (0.2)
Physiological effect α6L9'Sβ2* (α6L9'S transgenic mice [6]): elicited responses; also recorded: elicit a response; also recorded: activation (1.0) ^2
